Results from paper PMC7985170, “Marine Peptide-N6NH2 and Its Derivative-GUON6NH2 Have Potent Antimicrobial Activity Against Intracellular Edwardsiella tarda in vitro and in vivo” (Frontiers in Microbiology, 2021).

Columns and labels:
[1] = test system: E. tarda; experiment: SEM and TEM morphology; format: cell-based, Edwardsiella tarda; details: 4× MIC, 2 h
Description: To further characterize the bactericidal effects of the peptides, scanning electron microscopy (SEM) and transmission electron microscopy (TEM) were used to visualize morphological changes ([Yang et al., 2019]). E. tarda was cultured to logarithmic growth stage (10^8 CFU/mL) and diluted with 0.01 M PBS (pH 7.4) to OD600 nm = 1. E. tarda cells were treated with 4× MIC peptides at 37°C for 2 h and the untreated cells were used as the control. Briefly, after centrifugation, the bacterial cells were washed three times with 0.1 M PBS (pH 7.2) and fixed overnight at 4°C with 2.5% glutaraldehyde. After washing again, the cells were fixed with 1% osmium tetroxide (OsO4) for 2 h and dehydrated in a graded ethanol series (50%–70%–85%–95% × 2–100%, × 2) for 15 min, respectively. The samples were then dried by CO2, sputtered with gold-palladium, and observed on a QUANTA200 SEM (FEI, Philips, Netherlands).
E. tarda cells were treated peptides before fixation as described above. The bacteria were washed with 0.01 M PBS (pH 7.4) for five times, 7 min each time, and fixed with 1% osmium acid buffer (4°C) for 1 h. After dehydration with a graded acetone series (30%–50%–70%–85%–95%–100% × 3), the cells were immersed in mixtures of acetone and resin (3:1, 1:1 and 1:3, respectively) for 40 min and in a pure epoxy resin overnight. The samples were then embedded in embedding medium and polymerized at 45°C for 3 h and at 65°C for 24 h, respectively. The sections were prepared using an ultramicrotome, stained with 1% uranyl acetate, and visualized by a JEM1400 (JEDL, Tokyo, Japan).

[2] = test system: LPS; experiment: LPS binding, BODIPY-TR-cadaverine (BC) probe displacement; details: 0.5 μM LPS, 5 μM BC, Tris buffer pH 7.4; peptides 0.049 to 50 μM
Description: The BODIPY’-TR-cadaverine (BC) probe was used to determine the ability of peptides to bind to LPS ([Wang et al., 2020]). 0.5 μM LPS was incubated with 5 μM BC in […] Tris buffer (pH 7.4) for 4 h at 37°C. Subsequently, the peptides were added into the mixture and the final concentrations of peptides ranged from 0.049 to 50 μM. Ampicillin was used as the negative control. Changes in fluorescence were measured by a fluorescence spectrophotometry at room temperature (excitation/emission, 580/620 nm).

[3] = test system: E. tarda; experiment: Mouse peritonitis model, survival; format: in vivo; details: 1 μmoL/kg i.p. at 1 h postinfection, ICR mice, 5 days
Description: To establish a peritonitis mouse model, six-week-old female ICR mice (five mice/group) were intraperitoneally injected with E. tarda (1 × 10^9 CFU/mL, 0.5 mL). The infected mice were followed by the intraperitoneal injection of N6NH2, GUON6NH2 or norfloxacin (1 μmol/kg of body weight, 0.2 mL) at 1 h postinfection, respectively. Mice injected with only bacteria or PBS were used as negative or blank controls. The survival of mice was recorded daily for 5 days.

[4] = test system: E. tarda; experiment: Time-killing curve; format: cell-based, Edwardsiella tarda; details: 2× MIC
Description: Time-killing curve of peptides was performed according to the previous method ([Flamm et al., 2019]). E. tarda was cultured to logarithmic phase, diluted in Mueller Hinton broth (MHB) (1 × 10^5 CFU/mL) containing 1×, 2×, or 4× MIC of peptides, and cultured at 28°C (200 rpm). PBS was added as a control. Bacterial samples (100 μL) were removed at different time intervals (0, 0.5, 1, 1.5, 2, 4, 6, 8, 10, 12, 22, and 24 h) and were counted on MH solid plates. The time-killing curves of peptides were plotted. Bacterial cells treated with 2× MIC norfloxacin and without treatment were used as the positive and blank controls, respectively.

[5] = test system: E. tarda; experiment: Post-antibiotic effect (PAE); format: cell-based, Edwardsiella tarda; details: 2 h exposure, E. tarda, 28°C, n = 3
Description: E. tarda cells were incubated with peptides (1×, 2×, or 4× MIC) for 2 h, diluted, and cultured at 28°C and 200 rpm. An aliquot of samples (50 μL) were taken for CFU counts at different time intervals until bacterial cultures became turbid. Bacteria treated with the N6NH2, GUON6NH2 or vancomycin were used as the positive control; bacteria without treatment were used as the blank control. The PAE was calculated using the following formula: PAE = T–C, where T is the time for the CFU counts to increase by 10-fold above the count observed immediately after drug removal, and C is the corresponding time for the untreated control ([Oh et al., 2019]).

[6] = test system: E. tarda; experiment: Mouse peritonitis model, bacterial counts in peritoneal fluid; format: in vivo; details: 1 μmol/kg i.p.
Description: The mice were intraperitoneally infected with E. tarda (1 × 10^9 CFU/mL, 0.5 mL) and then injected with N6NH2 and GUON6NH2 (1 μmol/kg) or PBS (the blank control) in the same way at 1 h after infection. The mice were then killed at 24 h after treatment, and peritoneal fluids were obtained by washing with 5 mL of ice-cold PBS. The total number of E. tarda in the fluids was determined before any further procedures. For intracellular bacteria quantification, the other fraction was centrifuged for 5 min at 4°C (1,000 rpm). The cells were collected, treated with 1,000 μg/mL gentamicin for 30 min at 37°C to kill extracellular bacteria, and washed with ice-cold PBS twice to remove extracellular gentamicin. Subsequently, the cells were lysed and the bacteria were counted as described above for the in vitro experiment ([Kim et al., 2011]).

## CCn1cc(C(=O)O)c(=O)c2cc(F)c(N3CCNCC3)cc21 [norfloxacin, reference compound]
[1]
  morphological changes by SEM: no significant change in the bacterial cell structures
  ultrastructure changes by TEM: no significant change in bacterial cells
[2]
  ability to bind to LPS (BC probe displacement): did not replace BC probe to bind to LPS
[3]
  survival rate of mice: 40%
[4]
  time of bacterial re-growth: 12 h
[5]; 1× MIC
  PAE: 2.65 h
[5]; 2× MIC
  PAE: 3.48 h
[5]; 4× MIC
  PAE: 3.12 h
[6]; peritoneal fluid 24 h after treatment
  decrease of total numbers of bacteria: 0.49 Log10 CFU
[6]; peritoneal fluid cells 24 h after treatment
  reduction of intracellular bacteria: 0.35 Log10 CFU
